Patent US10143201B2, “Fungicidal compositions” (Syngenta Crop Protection LLC, priority 2007, dated 2018)
Several values for one entry are separate records, joined by “and”; a condition that tells them apart may be missing. Equal entries are not always repeated.

How the values were obtained:
[1] = tested on: Septoria tritici; assay: Fungicidal action against Septoria tritici (leaf blotch), microtiter growth inhibition; format: cell-based; conditions: alone
Procedure: Example B3: Fungicidal Action Against Septoria tritici (Leaf Blotch)
(§1) Conidia of the fungus from cryogenic storage are directly mixed into nutrient broth (PDB potato dextrose broth). After placing a (DMSO) solution of the test compounds into a microtiter plate (96-well format) the nutrient broth containing the fungal spores is added. The test plates are incubated at 24° C. and the inhibition of growth is evaluated after 4 days. The expected fungicidal action is calculated according to the Colby method.

[2] = tested on: Phakopsora pachyrhizi; assay: Action against Asian soybean rust, leaf disc test; format: in vivo; conditions: 14 days after inoculation
Procedure: Example B-1: Action Against Asian Soybean Rust (Phakopsora pachyrhizi)—Leaf Disc Test
Whole soybean plants (variety brand Williams82) are treated with the recited active ingredients 4 weeks after planting. 1 day after spraying leaf disks are cut from the first trifoliate leaf. Five repetitions at each rate are conducted. The leaf disks are inoculated with Phakopsora pachyrhizi (Asian soybean rust) one day after treatment. Evaluation of the leaf disks is conducted fourteen days after inoculation and the mean percent infestation of the five repetitions is calculated. Standard EC100 formulations are used. The rates of the active ingredients used are given in Table B1 as g active ingredient (a.i.)/ha.

[3] = tested on: Gaeumannomyces graminis; assay: Fungicidal action against Gaeumannomyces graminis (take-all of cereals), microtiter growth inhibition; format: cell-based; conditions: compound alone
Procedure: Example B7: Fungicidal Action Against Gaeumannomyces graminis (Take-all of Cereals)
as §1, with “Mycelial fragments” for “Conidia”, “24 C” for “24° C.”, “days.” for “days. The expected fungicidal action is calculated according to the Colby method.”

[4] = tested on: Cercospora arachidicola (syn. Mycosphaerella arachidis); assay: Fungicidal action against Cercospora arachidicola (brown leaf spot of groundnut), microtiter growth inhibition; format: cell-based; conditions: compound alone
Procedure: Example B8: Fungicidal Action Against Cercospora arachidicola (Syn. Mycosphaerella arachidis), Brown Leaf Spot of Groundnut (Peanut)
as §1, with “24 C” for “24° C.”, “7” for “4”, “days.” for “days. The expected fungicidal action is calculated according to the Colby method.”

[5] = tested on: Pyrenophora teres; assay: Fungicidal action against Pyrenophora teres (net blotch), microtiter growth inhibition; format: cell-based
Procedure: Example B6: Fungicidal Action Against Pyrenophora teres (Net Blotch)
as §1

[6] = tested on: Alternaria solani; assay: Fungicidal action against Alternaria solani (early blight tomato/potato), microtiter growth inhibition; format: cell-based; conditions: alone
Procedure: Example B4: Fungicidal Action Against Alternaria solani (Early Blight Tomato/Potato)
as §1, with “after 3” for “after 4”

[7] = tested on: Monopraphella nivalis (syn. Microdochium nivale, Fusarium nivale); assay: Fungicidal action against Monopraphella nivalis (snow mould, foot rot of cereals), microtiter growth inhibition; format: cell-based; conditions: compound alone; for inhibition at 0.25 ppm: 0.2500 ppm
Procedure: Example B9: Fungicidal Action Against Monopraphella nivalis (Syn. Microdochium nivale, Fusarium nivale), Snow Mould, Foot Rot of Cereals
as §1, with “24 C” for “24° C.”, “days.” for “days. The expected fungicidal action is calculated according to the Colby method.”

[8] = tested on: Botrytis cinerea; assay: Fungicidal action against Botrytis cinerea (gray mould), microtiter growth inhibition; format: cell-based; conditions: alone
Procedure: Example B2: Fungicidal Action Against Botrytis cinerea (Gray Mould)
as §1

[9] = tested on: Pseudocercosporella herpotrichoides (syn. Tapesia yallundae); assay: Fungicidal action against Pseudocercosporella herpotrichoides (eye spot of cereals), microtiter growth inhibition; format: cell-based; conditions: alone
Procedure: Example B5: Funicidal Action Against Pseudocercosporella herpotrichoides (Syn. Tapesia yallundae), Eye Spot of Cereals
as §1

[10] = tested on: Colletotrichum lagenarium (syn. Glomerella lagenarium); assay: Fungicidal action against Colletotrichum lagenarium (anthracnose of cucurbits), microtiter growth inhibition; format: cell-based; conditions: compound alone
Procedure: Example B10: Fungicidal Action Against Colletotrichum lagenarium (Syn. Glomerella lagenarium), Anthracnose of Cucurbits Conidia of the fungus from cryogenic storage are directly mixed into nutrient broth (PDB potato dextrose broth). After placing a (DMSO) solution of the test compounds into a microtiter plate (96-well format) the nutrient broth containing the fungal spores is added. The test plates are incubated at 24 C and the inhibition of growth is evaluated after 3 days.

[11] = Microdochium nivale, 0.0625 ppm
[12] = Microdochium nivale, 0.1250 ppm

Cn1cc(C(=O)Nc2cccc3c2C2CCC3C2=C(Cl)Cl)c(C(F)(F)F)n1 (centres unmarked)
melting point: 183 to 188 °C and 179 to 181 °C

Cn1cc(C(=O)Nc2cccc3c2C2CCC3C2=C(Cl)Cl)c(C(F)F)n1 (centres unmarked) [Compound A-1.1, 3-difluoromethyl-1-methyl-1H-pyrazole-4-carboxylic acid (9-dichloromethylidene-benzonorbornene-5-yl)amide]
% activity ([1]; 0.0625 ppm): 20%
% activity ([1]; 0.1250 ppm): 50%
% activity ([1]; 0.2500 ppm): 70%
% activity ([1]; 0.5000 ppm): 90%
% Control of Phakopsora pachyrhizi ([2]; 31.25 g a.i./ha): 36%
% Control of Phakopsora pachyrhizi ([2]; 62.5 g a.i./ha): 36%
% Control of Phakopsora pachyrhizi ([2]; 125 g a.i./ha): 82%
% Control of Phakopsora pachyrhizi ([2]; 250 g a.i./ha): 87%
% activity ([3]; 0.0156 ppm): 50% and 70%
% activity ([4]; 0.0039 ppm): 0%
% activity ([4]; 0.0078 ppm): 0%
% activity ([4]; 0.0156 ppm): 20%
% activity ([4]; 0.0313 ppm): 70%
% activity ([5]; 0.0078 ppm, alone): 0%
% activity ([5]; 0.0313 ppm, alone): 20%
% activity ([5]; 0.0625 ppm, alone): 20%
% activity ([5]; 0.1250 ppm, alone): 20%
% activity ([5]; 0.2500 ppm, alone): 50%
% activity ([5]; compound alone, 0.0313 ppm): 20%
% activity ([5]; compound alone, 0.0625 ppm): 20%
% activity ([5]; compound alone, 0.2500 ppm): 50%
% activity ([5]; compound alone, 0.5000 ppm): 50% and 70%
% activity ([5]; compound alone, 1.0000 ppm): 70%
% activity ([5]; compound alone, 2.0000 ppm): 70%
% activity ([6]; 0.0078 ppm): 0%
% activity ([6]; 0.0156 ppm): 20%
% activity ([6]; 0.0313 ppm): 20%
% activity ([6]; 0.0625 ppm): 50%
% activity ([6]; 0.1250 ppm): 50%
% activity ([6]; 0.2500 ppm): 50%
% activity ([7]; 0.0313 ppm): 20%
% activity ([7]; 0.0625 ppm): 50%
% activity ([7]; 0.1250 ppm): 90%
% activity ([8]; 0.0156 ppm): 0%
% activity ([8]; 0.0313 ppm): 0%
% activity ([8]; 0.0625 ppm): 20%
% activity ([8]; 0.1250 ppm): 20%
% activity ([8]; 0.5000 ppm): 50% and 70%
% activity ([8]; 1.0000 ppm): 90%
% activity ([9]; 0.0039 ppm): 0%
% activity ([9]; 0.0078 ppm): 0%
% activity ([9]; 0.0625 ppm): 70%

Cn1cc(C(=O)Nc2cccc3c2C2CCC3C2=C(F)F)c(C(F)F)n1 (centres unmarked) [Compound A-1.2, 3-difluoromethyl-1-methyl-1H-pyrazole-4-carboxylic acid (9-difluoromethylidene-benzonorbornene-5-yl)amide]
% activity ([1]; 0.0078 ppm): 0%
% activity ([1]; 0.0156 ppm): 0%
% activity ([1]; 0.1250 ppm): 0%
% activity ([1]; 0.2500 ppm): 20%
% activity ([1]; 0.5000 ppm): 50%
% activity ([1]; 1.0000 ppm): 70%
% Control of Phakopsora pachyrhizi ([2]; 31.25 g a.i./ha): 39%
% Control of Phakopsora pachyrhizi ([2]; 62.5 g a.i./ha): 54%
% Control of Phakopsora pachyrhizi ([2]; 125 g a.i./ha): 44%
% Control of Phakopsora pachyrhizi ([2]; 250 g a.i./ha): 94%
% activity ([3]; 0.0156 ppm): 0%
% activity ([3]; 0.0313 ppm): 0%
% activity ([3]; 0.0625 ppm): 0%
% activity ([3]; 0.1250 ppm): 0%
% activity ([3]; 0.5000 ppm): 70% and 90%
% activity ([4]; 0.0156 ppm): 0%
% activity ([4]; 0.0313 ppm): 0%
% activity ([4]; 0.0625 ppm): 0%
% activity ([4]; 0.1250 ppm): 20%
% activity ([4]; 0.2500 ppm): 70% and 50%
% activity ([5]; 0.0078 ppm, alone): 0%
% activity ([5]; 0.0156 ppm, alone): 0%
% activity ([5]; 0.0313 ppm, alone): 0%
% activity ([5]; 0.1250 ppm, alone): 20%
% activity ([5]; 0.2500 ppm, alone): 20%
% activity ([5]; compound alone, 0.0313 ppm): 0%
% activity ([5]; compound alone, 0.1250 ppm): 20%
% activity ([5]; compound alone, 0.2500 ppm): 20%
% activity ([5]; compound alone, 0.5000 ppm): 50%
% activity ([5]; compound alone, 1.0000 ppm): 50%
% activity ([5]; compound alone, 2.0000 ppm): 70%
% activity ([6]; 0.0313 ppm): 0%
% activity ([6]; 0.1250 ppm): 20%
% activity ([6]; 0.2500 ppm): 50%
% activity ([6]; 0.5000 ppm): 50%
% activity ([7]; 1.0000 ppm): 50%
% activity ([7]; 2.0000 ppm): 70%
% activity ([8]; 0.0313 ppm): 0%
% activity ([8]; 0.1250 ppm): 20%
% activity ([8]; 0.2500 ppm): 20%
% activity ([8]; 0.5000 ppm): 20%
% activity ([8]; 1.0000 ppm): 50%
% activity ([8]; 2.0000 ppm): 70%
% activity ([9]; 0.0039 ppm): 0%
% activity ([9]; 0.0078 ppm): 0%
% activity ([9]; 0.0156 ppm): 0%
% activity ([9]; 0.0313 ppm): 0%
% activity ([9]; 0.0625 ppm): 0%
% activity ([9]; 0.5000 ppm): 70%
% activity ([10]; 0.0313 ppm): 0%
% activity ([10]; 0.0625 ppm): 0%
% activity ([10]; 0.1250 ppm): 0%
% activity ([10]; 0.5000 ppm): 20%
% activity ([10]; 1.0000 ppm): 50%

Cn1cc(C(=O)Nc2cccc3c2C2CCC3C2=C(Br)Br)c(C(F)F)n1 (centres unmarked) [Compound A-1.3, 3-difluoromethyl-1-methyl-1H-pyrazole-4-carboxylic acid (9-dibromomethylidene-benzonorbornene-5-yl)amide]
% Control of Phakopsora pachyrhizi ([2]; 31.25 g a.i./ha): 36%
% Control of Phakopsora pachyrhizi ([2]; 62.5 g a.i./ha): 36%
% Control of Phakopsora pachyrhizi ([2]; 125 g a.i./ha): 54%
% Control of Phakopsora pachyrhizi ([2]; 250 g a.i./ha): 93%

Cn1cc(C(=O)Nc2ccc(F)cc2-c2ccc(Cl)c(Cl)c2)c(C(F)F)n1 [Compound B-5.11, 3-difluoromethyl-1-methyl-1H-pyrazole-4-carboxylic acid (3′,4′-dichloro-5-fluoro-1,1′-biphenyl-2-yl)-amide]
inhibition at 0.0039 ppm ([4]; Mycosphaerella arachidis, 0.0039 ppm, read-out: % activity): 0%
inhibition at 0.0078 ppm ([4]; Mycosphaerella arachidis, 0.0078 ppm, read-out: % activity): 0%
inhibition at 0.0156 ppm ([4]; Mycosphaerella arachidis, 0.0156 ppm): 20%
inhibition at 0.0313 ppm ([4]; Mycosphaerella arachidis, 0.0313 ppm): 70%
inhibition at 0.0313 ppm ([7]; Microdochium nivale, 0.0313 ppm): 0%
inhibition at 0.0625 ppm [7, 11]: 0%
inhibition at 0.125 ppm [7, 12]: 0%
inhibition at 0.25 ppm ([7]; Microdochium nivale): 20%

CC(Cc1ccc(C(C)(C)C)cc1)CN1C[C@@H](C)O[C@@H](C)C1 (some centres unmarked) [Fenpropimorph]
inhibition at 0.25 ppm ([3]; Gaeumannomyces graminis, 0.2500 ppm): 0%
inhibition at 0.5 ppm ([3]; Gaeumannomyces graminis, 0.5000 ppm): 0%
inhibition at 1 ppm ([3]; Gaeumannomyces graminis, 1.0000 ppm): 0%
inhibition at 2 ppm ([3]; Gaeumannomyces graminis, 2.0000 ppm): 20%
inhibition at 0.0625 ppm ([4]; Mycosphaerella arachidis, 0.0625 ppm): 0%
inhibition at 0.125 ppm ([4]; Mycosphaerella arachidis, 0.1250 ppm): 0%
inhibition at 0.25 ppm ([4]; Mycosphaerella arachidis, 0.2500 ppm): 20%
inhibition at 0.5 ppm ([4]; Mycosphaerella arachidis, 0.5000 ppm): 50%
inhibition at 0.0625 ppm [7, 11]: 0%
inhibition at 0.125 ppm [7, 12]: 0%
inhibition at 0.25 ppm ([7]; Microdochium nivale): 0%
inhibition at 0.5 ppm ([7]; Microdochium nivale, 0.5000 ppm): 0%
inhibition at 1 ppm ([7]; Microdochium nivale, 1.0000 ppm): 0%
inhibition at 2 ppm ([7]; Microdochium nivale, 2.0000 ppm): 0%
inhibition at 0.25 ppm ([10]; Colletotrichum orbiculare, 0.2500 ppm): 0%
inhibition at 0.5 ppm ([10]; Colletotrichum orbiculare, 0.5000 ppm): 0%
inhibition at 1 ppm ([10]; Colletotrichum orbiculare, 1.0000 ppm): 20%
inhibition at 2 ppm ([10]; Colletotrichum orbiculare, 2.0000 ppm): 20%

CC(C)C1CCC(Cc2ccc(Cl)cc2)C1(O)Cn1cncn1 (centres unmarked) [Ipconazole]
inhibition at 0.125 ppm ([10]; Colletotrichum orbiculare, 0.1250 ppm): 20%
